Data as given in article PMC4092090, “Investigation of a MMP-2 Activity-Dependent Anchoring Probe for Nuclear Imaging of Cancer” (PLoS ONE, 2014).

Tests used:
[1] = assay type: physicochemical; settings: pH 7.4
Procedure: The experimental determination of probe partition coefficients (log P values) was performed in 1-octanol and 0.02 M phosphate buffer pH 7.4 where the two phases were pre-saturated with each other. 1-Octanol (200 µl) and phosphate buffer (200 µl) were pipetted into LoBind Eppendorf tubes containing 0.37 MBq of probes. The tube was vortexed for 10 seconds, and centrifuged (5 min, 4000×g). Aliquots (50 µl) from the 1-octanol and buffer phases were transferred into two test tubes for radioactivity counting with a NaI well-type scintillation counter (1470 WIZARD, Perkin Elmer, Kanagawa, Japan). The partition coefficient was calculated using the equation P = (counts/µl in 1-octanol)/(counts/µl in buffer).

[2] = tested on: HT1080 human fibrosarcoma cells; assay: Cellular uptake study; assay type: cell-based; settings: for Cellular accumulation (radioactivity in tumor cells): 5×10^5 HT1080 cells, FBS-free DMEM, 37 kBq probe, 30 min incubation, radioactivity counting, Fig. 3a
Procedure: HT1080 human fibrosarcoma cells were purchased from American Type Culture Collection (ATCC, Manassas, VA USA) and cultured in DMEM with low glucose (Invitrogen), 10% fetal bovine serum (FBS), and penicillin/streptomycin. MMP-2 cDNA was cloned into the pENTR vector (Invitrogen) and inserted into the pLenti6 vector (Invitrogen) as previously described, [7]. […] Protein quantitation was performed by BCA protein assay (Thermo Fisher Scientific, Inc. Rockford, IL USA). The cellular uptake study of MDAP3000 pretreated with activated MMP-2 (63 nM) in the presence or absence of GM6001 (100 µM) was performed as described above.

[3] = target: T1, Human-recombinant MMP-2 protein (Homo sapiens, UniProt P08253); assay: Cleavage assay; assay type: biochemical; settings: activated MMP-2 1–5 nM, 370 kBq probe, 37°C, 2 hr, pH 7.5 assay buffer, RP-HPLC, Fig. 3b
T1 construct: purchased R & D Systems, Inc. 902-MP-010
T1 sequence (P08253 110-660): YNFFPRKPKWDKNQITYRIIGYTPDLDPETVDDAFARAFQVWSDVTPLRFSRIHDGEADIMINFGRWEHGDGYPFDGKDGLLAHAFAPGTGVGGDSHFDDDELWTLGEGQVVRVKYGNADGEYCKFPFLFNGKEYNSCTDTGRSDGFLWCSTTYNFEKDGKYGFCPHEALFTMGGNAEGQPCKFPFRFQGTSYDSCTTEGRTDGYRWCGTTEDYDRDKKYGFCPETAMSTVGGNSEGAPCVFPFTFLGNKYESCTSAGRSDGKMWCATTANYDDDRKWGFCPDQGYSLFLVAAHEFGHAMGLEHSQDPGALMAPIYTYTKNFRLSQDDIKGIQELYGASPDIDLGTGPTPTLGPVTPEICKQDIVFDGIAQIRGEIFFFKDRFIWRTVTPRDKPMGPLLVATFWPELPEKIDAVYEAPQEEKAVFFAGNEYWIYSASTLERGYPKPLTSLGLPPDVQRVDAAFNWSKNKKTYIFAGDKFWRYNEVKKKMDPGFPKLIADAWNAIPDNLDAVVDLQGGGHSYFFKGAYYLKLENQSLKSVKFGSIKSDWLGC
Procedure: Human-recombinant MMP-2 protein (902-MP-010, R & D Systems, Inc., Minneapolis, MN USA) was activated with p-aminophenylmercuric acetate (1 mM) in assay buffer (50 mM Tris-HCl, 150 mM NaCl, 10 mM CaCl2, 5 µM ZnCl2, 0.02% Brij 35, pH 7.5). MDAP1000, MDAP3000, and MDAP5000 (370 kBq) were incubated at 37°C for 2 hr with activated MMP-2 (1–5 nM) and a MMP inhibitor (0 or 100 µM, GM6001, Merck KGaA, Darmstadt, Germany). The reaction was quenched by addition of methanol, and the percentage of cleaved peptide was estimated by RP-HPLC.

| Substance | log P (partition coefficient) [1] | Cellular accumulation (radioactivity in tumor cells) [2] | Increased cellular uptake of MMP-2 pretreated probe with additional MMP inhibitor ([2]; HT1080 cells, activated MMP-2 (63 nM) plus GM6001 (100 µM), Fig. 3c) | Cellular accumulation of probe pretreated with MMP-2 ([2]; HT1080 cells, probe pretreated with activated MMP-2 (63 nM), 30 min, Fig. 3c) | Cleavage by MMP-2 [3] |
| --- | --- | --- | --- | --- | --- |
| Palmitoyl-Dap(p-SCN-Bn-DTPA-^111In)-10-Adc-Gly-Pro-Leu-Gly-Val-Arg-Gly-Lys(ivDde)-PEG3000 [MDAP3000] | −0.95±0.12 | significantly lower radioactivity | completely blocked | accumulated in cells to higher levels | concentration-dependent manner |
| Palmitoyl-Dap(p-SCN-Bn-DTPA-^111In)-10-Adc-Gly-Pro-Leu-Gly-Val-Arg-Gly-Lys(ivDde)-PEG1000 [MDAP1000] | −0.56±0.13 | high radioactivity accumulation |  |  | concentration-dependent manner |
